In patent US12533408B2, “Treatment regimen for the treatment of autoimmune disorders” (Merck Patent GmbH, priority 2020, dated 2026):

Assays:
[1] = system: COVID-19; experiment: COVID-19 cases in cladribine tablets treated MS patients (Merck KGaA Global Patient Safety Database); format: in vivo, human
Method: On this date, there were 46 patients with confirmed or suspected COVID-19 within the safety database. Patient age was available for 35 patients, with a range of 22-67 years. There were 26 females, 12 males, and 8 patients for whom gender was not reported. Cases were defined as confirmed if a confirmatory diagnostic test was reported as positive. If no confirmatory test was performed or reported, then cases were described as suspected. […] Cases were designated as serious if they fulfilled the criteria of hospitalized, considered to be life-threatening, or medically significant. In keeping with usual pharmacovigilance practices, outcome was classified as recovered, recovering, not recovered, fatal, or not reported.

[2] = system: varicella zoster virus (VZV); format: in vivo; conditions: all time points examined, MAGNIFY patients
[3] = system: lymphocytes (ALC, CD19+ B, CD4+ T, CD8+ T); conditions: second treatment year (Giovannoni et al., 2010); cited from earlier work
[4] = system: IgG and IgM; experiment: Serum immunoglobulin levels (IgG, IgM) under cladribine tablets
[5] = TEAEs of viral and bacterial infections in patients with Grade ≥3 lymphopenia, by age; format: in vivo, human; conditions: for incidence of bronchitis / incidence of herpes zoster / incidence of pneumonia / incidence of respiratory tract infection: Grade ≥3 lymphopenia; for overall incidence of TEAEs of viral and bacterial infections: Weeks 0-96, Grade ≥3 lymphopenia
Method: The definitions used for before, during, and after lymphopenia were: before (before the start date of the first lymphopenia Grade ≥3), during (on or after the start date of the first lymphopenia up and including to the last date of the last lymphopenia), and after (after the end date of the last lymphopenia). The incidence of TEAEs were summarized by Preferred Term (PT) and were coded according to the MedDRA dictionary Version 20.0. All analyses were performed using Statistical Analysis Software (SAS®), Version 9.4 or higher.

[6] = system: Influenza strain Victoria (Colorado/B); experiment: Hemagglutination inhibition (HAI) antibody titer, Victoria (Colorado/B); format: in vivo, influenza B virus; conditions: 12 patients
[7] = human, in vivo
[8] = clinical; conditions: human, plasma, po, 10 mg
[9] = system: seasonal influenza; format: in vivo, influenza A and B
[10] = system: Influenza strain Yamagata (Phuket/B); experiment: Hemagglutination inhibition (HAI) antibody titer, Yamagata (Phuket/B); format: in vivo, influenza B virus; conditions: 12 patients
[11] = Patient Canada VZV-70056800222530003, month 0, 9.7 wk after Shingrix, before first Mavenclad dose
[12] = Patient Canada VZV-70056800222530003, month 3, 23.0 wk after Shingrix, 13.3 wk after first Mavenclad dose

Nc1nc(Cl)nc2c1ncn2[C@H]1C[C@H](O)[C@@H](CO)O1 [cladribine tablets, Cladribine]
COVID-19 cases medically significant ([1]; suspected cases): 1 cases
COVID-19 cases requiring hospitalisation ([1]; suspected cases): 1 cases
COVID-19 outcome: Recovered ([1]; suspected cases): 6 cases
COVID-19 outcome: Recovering ([1]; suspected cases): 5 cases
COVID-19 cases that received mechanical ventilation ([1]; suspected or confirmed): None
COVID-19 deaths ([1]; suspected or confirmed): no deaths
COVID-19 symptoms in the majority of patients ([1]; suspected or confirmed): mild to moderate respiratory symptoms
post-vaccination antibody titer against VZV, protective titer [2]: ≥ 100 IU/L
median ALC [3]: above 800 cells/mL
IgG immunoglobulin levels vs baseline ([4]; 1, 2, 3, 6 and 12 month): comparable to baseline
IgG, change vs baseline ([4]; Month 3): +10%
IgM, change vs baseline ([4]; Month 3): −5%
IgG, change vs baseline ([4]; Month 6): +11%
IgM, change vs baseline ([4]; Month 6): −13%
IgG, change vs baseline ([4]; Month 12): +3%
IgM, change vs baseline ([4]; Month 12): +21%
IgG levels ([4]; Patient 70056800222520001): not affected
IgG immunoglobulin levels ([4]; Patient 70056800227010005, any timepoint after treatment): not affected
IgM ([4]; Patient Australia VZV-70056800221260001, month 3, 24.6 wk after Zostavax, 14.7 wk after first Mavenclad dose): 59 mg/dL
IgG [4, 11]: 1,410 mg/dL
IgM [4, 11]: 190 mg/dL
IgG [4, 12]: 1,510 mg/dL
IgM [4, 12]: 166 mg/dL
IgM levels ([4]; month 12, still in the normal range): slightly decreased
immunoglobulin numbers after cladribine treatment ([4]; various time points): not decreased
TEAEs of viral and bacterial infections during the Year 1 Grade ≥3 lymphopenia episode ([5]; Age >50): 30%
patients with TEAEs severe in intensity (pneumonia and bronchitis) ([5]; Age >50 (1 patient)): 3.3%
patients with TEAEs mild to moderate in intensity ([5]; Age >50 (16 patients)): 53.3%
TEAEs of viral and bacterial infections during the Year 1 Grade ≥3 lymphopenia episode ([5]; Age ≤50): 21.5%
patients with TEAEs mild to moderate in severity ([5]; Age ≤50 (103 patients)): 50.2%
incidence of bronchitis ([5]; Age >50): 10%
incidence of herpes zoster ([5]; Age >50): 13.3%
incidence of pneumonia ([5]; Age >50): 6.7%
incidence of respiratory tract infection ([5]; Age >50): 6.7%
incidence of bronchitis ([5]; Age ≤50): 5.9%
incidence of herpes zoster ([5]; Age ≤50): 3.4%
incidence of pneumonia ([5]; Age ≤50): 1.0%
incidence of respiratory tract infection ([5]; Age ≤50): 1.5%
overall incidence of TEAEs of viral and bacterial infections ([5]; Age >50 (17/30)): 56.7%
overall incidence of TEAEs of viral and bacterial infections ([5]; Age ≤50 (105/205)): 51.2%
2-fold change [6]: 17%
4-fold change [6]: 8%
Post-vacc seroprotection [6]: 92%
Pre-vacc seroprotection [6]: 83%
herpes zoster incidence [7]: 0.83 episodes per 100 PY
incidence rate of serious infections [7]: 0.8 /100 PY
incidence rate of total infections [7]: 24.9 events per 100 patient-years (PY)
bioavailability [8]: 45.6%
proportion of previously seropositive patients (HAI≥40) with ≥2-fold increase against at least 1 strain ([9]; 8 patients): 87.5%
proportion of previously seropositive patients (HAI≥40) with ≥4-fold increase against at least 1 strain ([9]; 8 patients): 37.5%
post-vaccination seroprotection, all Influenza strains ([9]; all vaccinated patients): 92-100%
rate of 2-fold change in AB titer, all strains ([9]; in vivo): 17-67%
2-fold change [10]: 17%
4-fold change [10]: 0%
Post-vacc seroprotection [10]: 92%
Pre-vacc seroprotection [10]: 75%
